In ChEMBL document CHEMBL1781918, “Quinazolin-4-piperidin-4-methyl sulfamide PC-1 inhibitors: alleviating hERG interactions through structure based design” (Bioorg Med Chem Lett, 2009):

What was measured:
[1] = molecular target: T1, Ectonucleotide pyrophosphatase/phosphodiesterase family member 1 (Homo sapiens) (UniProt P22413); test: Inhibition of PC1 by in vitro Kinase-Glo assay
T1 sequence (whole entry): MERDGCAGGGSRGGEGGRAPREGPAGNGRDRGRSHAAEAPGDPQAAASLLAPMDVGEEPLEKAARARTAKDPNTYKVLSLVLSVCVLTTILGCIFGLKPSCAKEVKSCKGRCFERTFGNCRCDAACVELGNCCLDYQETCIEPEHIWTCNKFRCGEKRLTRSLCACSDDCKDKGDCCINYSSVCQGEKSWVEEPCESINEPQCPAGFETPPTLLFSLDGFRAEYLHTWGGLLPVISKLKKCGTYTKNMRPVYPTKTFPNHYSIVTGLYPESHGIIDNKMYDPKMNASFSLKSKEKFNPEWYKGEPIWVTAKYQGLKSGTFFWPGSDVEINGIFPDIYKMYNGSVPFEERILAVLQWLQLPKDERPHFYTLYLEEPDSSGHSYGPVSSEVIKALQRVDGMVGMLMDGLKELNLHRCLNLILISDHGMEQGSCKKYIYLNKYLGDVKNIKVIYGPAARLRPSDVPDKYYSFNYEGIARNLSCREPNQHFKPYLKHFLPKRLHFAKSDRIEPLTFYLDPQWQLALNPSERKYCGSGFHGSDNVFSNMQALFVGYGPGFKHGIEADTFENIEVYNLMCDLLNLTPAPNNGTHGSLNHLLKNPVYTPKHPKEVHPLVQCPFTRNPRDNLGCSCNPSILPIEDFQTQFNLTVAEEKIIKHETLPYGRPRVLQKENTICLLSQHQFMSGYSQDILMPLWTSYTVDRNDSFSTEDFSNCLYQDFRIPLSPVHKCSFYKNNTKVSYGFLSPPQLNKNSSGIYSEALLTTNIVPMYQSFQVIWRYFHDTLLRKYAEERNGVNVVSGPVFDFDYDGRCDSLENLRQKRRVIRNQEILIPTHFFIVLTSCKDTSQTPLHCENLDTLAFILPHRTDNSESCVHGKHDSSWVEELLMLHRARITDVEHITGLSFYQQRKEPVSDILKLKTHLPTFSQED

[2] = Selectivity for PC1 to human ERG channel
[3] = molecular target: Voltage-gated inwardly rectifying potassium channel KCNH2 (Homo sapiens, UniProt Q12809); test: Displacement of [3H]-dofetilid from human ERG expressed in HEK293 cells; type: cell-based
Sequence of Voltage-gated inwardly rectifying potassium channel KCNH2 (Q12809 whole entry): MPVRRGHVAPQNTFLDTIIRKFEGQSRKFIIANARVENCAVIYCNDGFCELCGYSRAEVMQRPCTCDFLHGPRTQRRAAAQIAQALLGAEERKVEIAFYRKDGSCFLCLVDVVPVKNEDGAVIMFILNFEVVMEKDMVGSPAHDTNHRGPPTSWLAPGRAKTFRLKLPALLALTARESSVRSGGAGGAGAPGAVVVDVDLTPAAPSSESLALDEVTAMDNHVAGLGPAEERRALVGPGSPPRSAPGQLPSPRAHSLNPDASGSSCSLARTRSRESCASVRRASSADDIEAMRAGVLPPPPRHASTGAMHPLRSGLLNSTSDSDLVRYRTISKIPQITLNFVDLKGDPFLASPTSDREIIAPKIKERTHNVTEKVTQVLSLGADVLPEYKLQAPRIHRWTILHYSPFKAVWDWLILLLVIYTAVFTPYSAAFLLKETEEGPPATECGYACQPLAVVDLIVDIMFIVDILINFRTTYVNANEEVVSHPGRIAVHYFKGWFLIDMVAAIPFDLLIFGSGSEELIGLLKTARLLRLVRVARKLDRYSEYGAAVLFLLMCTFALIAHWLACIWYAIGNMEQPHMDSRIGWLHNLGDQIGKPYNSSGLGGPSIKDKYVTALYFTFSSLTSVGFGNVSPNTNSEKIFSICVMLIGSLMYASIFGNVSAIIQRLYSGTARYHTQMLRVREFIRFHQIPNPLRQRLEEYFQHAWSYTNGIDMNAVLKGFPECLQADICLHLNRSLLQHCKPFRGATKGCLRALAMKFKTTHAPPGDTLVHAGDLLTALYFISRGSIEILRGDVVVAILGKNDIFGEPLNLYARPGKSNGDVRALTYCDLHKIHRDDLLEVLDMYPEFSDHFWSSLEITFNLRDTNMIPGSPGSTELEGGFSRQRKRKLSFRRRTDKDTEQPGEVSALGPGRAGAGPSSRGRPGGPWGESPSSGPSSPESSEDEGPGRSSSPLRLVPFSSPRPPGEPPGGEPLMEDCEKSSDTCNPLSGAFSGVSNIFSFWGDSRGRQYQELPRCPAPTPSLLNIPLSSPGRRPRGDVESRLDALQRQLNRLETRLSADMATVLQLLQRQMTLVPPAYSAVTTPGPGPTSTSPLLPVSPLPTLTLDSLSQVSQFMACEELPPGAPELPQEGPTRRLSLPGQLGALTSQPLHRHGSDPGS

| SMILES | INH [1] | Ratio [2] | INH [3] |
| --- | --- | --- | --- |
| NS(=O)(=O)NCCC1CCN(c2ncnc3ccc(Cl)cc23)CC1 | 5.98 µM | – | – |
| COc1cc2nc(/C=C/c3cccnc3)nc(N3CCC(CCNS(N)(=O)=O)CC3)c2cc1OC | 0.0353 µM | 8 | 0.276 µM |
| COc1cc2ncnc(N3CCC(CNS(N)(=O)=O)CC3)c2cc1OC | 0.061 µM | > 160 | > 10 µM |
| Cc1nccn1-c1cc(N2CCC(CCNS(N)(=O)=O)CC2)ncn1 | 0.6 µM | > 16 | > 10 µM |
| COc1ccc2c(N3CCC(CCNS(N)(=O)=O)CC3)ncnc2c1 | 0.187 µM | 1 | 0.1202 µM |
| Cc1nccn1-c1cc(N2CCC(CNS(N)(=O)=O)CC2)ncn1 | > 10 µM | – | > 10 µM |
| Cc1nccn1-c1nccc(N2CCC(CCNS(N)(=O)=O)CC2)n1 | 2.45 µM | – | 6.867 µM |
| NS(=O)(=O)NCCC1CCN(c2ncnc3cc(Cl)ccc23)CC1 | > 10 µM | – | 3.4 µM |
| COc1cc2ncnc(N3CCC(CCNS(N)(=O)=O)CC3)c2cc1OC | 0.0362 µM | 17 | 0.601 µM |
| COc1cc2nc(/C=C/c3cccnc3)nc(N3CCC(CNS(N)(=O)=O)CC3)c2cc1OC | 0.063 µM | 52 | 3.296 µM |
| COc1ccc2c(N3CCC(CNS(N)(=O)=O)CC3)ncnc2c1 | 0.166 µM | > 60 | > 10 µM |
| CCc1nc(N2CCC(CCNS(N)(=O)=O)CC2)c2cc(OC)c(OC)cc2n1 | 0.214 µM | – | – |
| COc1cc2ncnc(N3CCC(NS(N)(=O)=O)CC3)c2cc1OC | > 10 µM | – | > 10 µM |
